Data set [1] deals with interleukin-6 release from MG63 osteoblast-like cells. As to the kind of experiment: Inhibition of E. coli LPS-stimulated interleukin-6 release from cultured MG63 osteoblast-like cells. It counts as cell-based, human. The conditions noted are these: E. coli LPS 25 ng/ml. From the text:
1. There are numerous factors that regulate bone physiology. Targeting the agents that induce bone resorption by recruiting/activating the cells that induce bone loss (the osteoclasts) has had limited exposure/efficacy. Most current therapies target the osteoclasts once they have been recruited or activated. A family of locally (bone) produced proteins called cytokines can induce a range of stimuli that can affect osteoclast number/activity. One of these cytokines is called interleukin-6 (IL-6). IL-6 is released by many cell types, including the bone forming cells (osteoblasts), following challenge from a range of agonists. These agonists can be physiological (1,25(OH)2 vitamin D3, interleukin-1β) or pathophysiological (interleukin-1β; bacterial endotoxin). • In vitro studies focussed on an immortalised osteoblast-like cell line called MG63 that was derived from a human osteosarcoma (bone cancer). These cells were cultured and screened for their ability to synthesize and release a range of cytokines including IL-6. Due to the well described activities of IL-6 induced bone loss this cytokine was focussed upon (see Manolagas S. C., Ann N Y Acad. Sci. 1998 May 1; 840:194-204). […] IL-6 can be measured by commercial immunoassays, for example, the QuantiGlo IL-6 Immunoassay from R&D systems.

Data set [2] relates to osteoblast-like MG63 cells. As to the kind of experiment: Viability of MG63 cells by uptake of 3H labelled Thymine in the formation of DNA. It counts as cell-based, human. The conditions noted are these: concentrations 10^−8M to 10^−5M, compared with control samples.
The subject of data set [3] is bone loss induced by oviarectomy. As to the kind of experiment: Oviarectomized (oestrogen deficient) mouse model of osteoporosis, tibial μCT. It counts as in vivo, C57Black mice. Conditions: OVx mice, 15 μg/mouse/day intraperitoneally, 5 weeks. From the text:
The most widely accepted animal model of osteoporosis is the oestrogen deficient rodent, with this model the effect of the present invention has been tested in vivo. All procedures were done under Home Office licence and full local ethical requirements. C57Black mice were randomly assigned to receive total bi-lateral oviarectomy or sham operation. The oviarectomized animals were randomly assigned for treatment or to an untreated control group. At operation eight animals were in each group. • The mice were housed under standard animal house conditions with 12 hour light dark cycles in temperature and humidity controlled conditions for 5 weeks. The Sham and control oviarectomized mice received 10% ethanol in saline vehicle injections intraperitoneally once per day. The NaQuinate treated mice received a single injection (15 μg/mouse/day) administered in 10% ethanol in saline injections intraperitoneally. All mice received the same volume of test sample and this complied with Home Office regulations. • After 5 weeks treatment the animals were sacrificed by a Schedule 1 method and the tibiae removed for X-ray micro-Computer Tomography (μCT) imaging analyses.

Data set [4] has as its system cultured cell lines derived from skin and liver. As to the kind of experiment: Cell toxicity in cultured cell lines derived from skin and liver. It counts as cell-based.
Data set [5] relates to bone loss in neurectomized limbs. Kind of data set: Disuse osteoporosis induced by sciatic neurectomy, tibial μCT. It counts as in vivo, mice. The method, then: Disuse osteoporosis was induced by right side sciatic neurectomy (SN). Mice were anaesthetized with oxygen and halothane and SN was achieved by resecting a 3-4 mm segment of the sciatic nerve posterior to the hip joint. On the 4th day after surgery mice were treated with either; control or NaQuinate for 5 days/week for 2 weeks. The tibias of both limbs were analysed by micro computerized tomography (μCT).

The mark [6] stands for this setting: neurectomized limbs, treated 5 days/week for 2 weeks.
[7] abbreviates: normal (non-neurectomized) bone.

Take `CC1=C(C/C=C(\C)C(=O)O)C(=O)c2ccccc2C1=O` [KCAT-5C (XIV), (2E)-4-(1,4-dihydro-2-methyl-1,4-dioxonaphthalen-3-yl)-2-methylbut-2-enoic acid]: the “inhibition of LPS-stimulated interleukin-6 release (in words)” value in data set [1] is given as “only active inhibiting Interleukin-6 from cultured MG63 osteoblast-like cells at very high concentrations (10^−5 M)”.

Consider `CC1=C(C/C=C(\C)CCC(=O)O)C(=O)c2ccccc2C1=O` [NaQuinate (VIII), (4E)-6-(1,4-dihydro-2-methyl-1,4-dioxonaphthalen-3-yl)-4-methylhex-4-enoic acid], for which the “DNA synthesis (3H-Thymine incorporation) of MG63 cells” value in data set [2] is recorded as “continue normal DNA synthesis under all concentrations tested”. In addition, in data set [3], the “percentage bone content (bone volume) in the trabecular compartment” value was “completely attenuated the bone loss” and the “trabecular number, tibial trabecular compartment” value is given as “completely attenuated the bone loss”. The cell toxicity entry in data set [4] is “lack of cell toxicity”. For the same compound, in data set [5] (setting [6]), the “bone loss assessed by % bone volume” value is “inhibits bone loss in neurectomized limbs” and the “bone loss assessed by trabecular number” value is on record as “inhibits bone loss in neurectomized limbs”. Also, in data set [5] (setting [7]), the “normal bone trabecular number” value was “does not alter normal bone trabecular number” and the normal bone volume result is recorded as “does not alter normal bone volume”.

Turning to `CC1=C(CCCCCCCC(=O)O)C(=O)c2ccccc2C1=O` [XV, 8-(1,4-dihydro-2-methyl-1,4-dioxonaphthalen-3-yl)octanoic acid], the “inhibition of LPS-stimulated interleukin-6 release (in words)” value in data set [1] was “completely inactive”.

Values taken from patent US8895624B2, “Treatment of osteoporosis” (Haoma Medica Ltd., priority 2009, dated 2014).
